Test results: ChEMBL document CHEMBL1153514, “Fundamental relationships between structure, reactivity, and biological activity for the duocarmycins and CC-1065” (J Med Chem, 2009)

Assays:
[1] = Stability assessed as half life at pH 3; format: physicochemical; conditions: buffer
[2] = Stability assessed as half life at pH 7; format: physicochemical; conditions: buffer
L1210 = assay: Cytotoxicity against mouse L1210 cells; format: functional, cell-based
[3] = Stability assessed as half life at pH 2; format: physicochemical; conditions: buffer

SMILES	half-life [1]	IC50 (L1210)	further results
CNC(=O)N1C[C@H]2C[C@@]23C1=CC(=O)c1ccccc13	0.6 h		
COC(=O)N1C[C@H]2C[C@@]23C1=CC(=O)c1ccccc13	0.95 h		
CCS(=O)(=O)N1C[C@H]2C[C@@]23C1=CC(=O)c1ccccc13	6.38 h		
CC(C)(C)OC(=O)N1CC[C@H]2C[C@@]23C1=CC(=O)c1ccccc13			half-life [2]: 544 h
COC(=O)c1cc2c([nH]1)C(=O)C=C1N(C(=O)OC(C)(C)C)C[C@H]3C[C@]123			Stability [2]: Stable
COc1cc2cc(C(=O)N3C[C@H]4C[C@@]45C3=CC(=O)c3ccccc35)[nH]c2c(OC)c1OC	133 h	0.02 nM	
CC(C)(C)OC(=O)N1C[C@H]2C[C@@]23C1=CC(=O)c1ccc(C#N)cc13	3.55 h		
CCC(=O)N1C[C@H]2C[C@@]23C1=CC(=O)c1ccccc13	1.6 h		
O=C1C=C2NC[C@H]3C[C@@]23c2ccccc21	4200 h		Stability [2]: Stable
COC(=O)c1cc2c([nH]1)[C@@]13C[C@@H]1CN(C(=O)OC(C)(C)C)C3=CC2=O		33 nM	
COc1cc2cc(CN3C[C@H]4C[C@@]45C3=CC(=O)c3ccccc35)[nH]c2c(OC)c1OC		1400 nM	t1/2 [1]: 1291.7 days
COC(=O)c1cccc2c1C(=O)C=C1N(C(=O)OC(C)(C)C)C[C@H]3C[C@]123	3.93 h	70 nM	
O=C1C=C2N(c3ccccc3)C[C@H]3C[C@@]23c2ccccc21		1100 nM	half-life [3]: 171 h
COc1ccc(N2C[C@H]3C[C@@]34C2=CC(=O)c2ccccc24)cc1		3200 nM	half-life [3]: 198 h
Cc1csc2c1[C@@]13C[C@@H]1CN(C(=O)OC(C)(C)C)C3=CC2=O	206 h	30 nM	
COC(=O)c1cc2c([nH]1)[C@@]13C[C@@H]1CN(C(=O)c1cc4cc(OC)c(OC)c(OC)c4[nH]1)C3=CC2=O		0.05 nM	
COC(=O)c1ccc(N2C[C@H]3C[C@@]34C2=CC(=O)c2ccccc24)cc1		330 nM	half-life [3]: 138 h
COC(=O)C1=NC2=C(OCc3ccccc3)C=C3N(C(=O)c4cc5cc(OC)c(OC)c(OC)c5[nH]4)C[C@H]4C[C@@]34C2=C1	0.417 h	5 nM	half-life [2]: 0.717 h
Cc1cc2c(s1)[C@@]13C[C@@H]1CN(C(=O)OC(C)(C)C)C3=CC2=O	209 h	25 nM	
O=C1C=C2CC[C@H]3C[C@@]23c2ccccc21	1.3 h		half-life [2]: 4 h
CC(C)(C)OC(=O)N1CCC[C@H]2C[C@@]23C1=CC(=O)c1ccccc13	0.03 h	5000 nM	half-life [2]: 2.1 h
CC(C)(C)OC(=O)N1C[C@H]2C[C@@]23C1=CC(=O)c1ccccc13			Stability [2]: Stable
COc1ccc2c(c1)[C@@]13C[C@@H]1CN(C(=O)OC(C)(C)C)C3=CC2=O	1.83 h		
COC(=O)c1cc2c([nH]1)C(=O)C=C1N(C(=O)c3cc4cc(OC)c(OC)c(OC)c4[nH]3)C[C@H]3C[C@]123 [DUOCARMYCIN]	177 h		Stability [2]: Stable
